In brackets after ≈: the same amount, converted by molar mass.
Legend:
[1] = tested on: Staphylococcus aureus; test: MIC determination of compounds on ECO/PAE/STA in microplates; assay type: cell-based; conditions: lowest concentration with no growth (90% inhibition of growth), 18-20 hours at 37° C., visual, strain not given
[2] = tested on: Staphylococcus aureus; test: Antibacterial susceptibility testing: IC90 determination (broth microdilution, resazurin fluorescence); assay type: cell-based; conditions: 90% inhibitory concentration for bacterial growth, Mueller Hinton broth, 35° C., 16-20 hours, strain not given
Description: Preparation of Bacterial Suspensions for Susceptibility Testing
The following bacteria were used: Staphylococcus aureus ATCC 29213, methicillin-resistant Staphylococcus aureus (MRSA) ATCC 700788 and Escherichia coli ATCC 35218. The bacteria used in this study were grown overnight in flasks containing 100 ml Mueller-Hinton broth (Difco cat. nr. 0757-17) in sterile de-ionized water, with shaking, at 37° C. Stocks were store at −70° C. until use.
Bacteria were incubated on a tryptic soy agar plate containing 5% sheep blood (Becton Dickinson cat. nr. 254053) for 18-24 hours at 35° C. in aerobic conditions (first passage). For the second passage, fresh Mueller-Hinton broth is inoculated with 5-10 colonies and grown overnight at 35° C. until turbidity (reaching log-phase) in aerobic conditions is reached. The bacterial suspension is then adjusted to 0.5 McFarland density and further diluted 1:100 in Mueller Hinton broth medium. This is used as inoculum.
Antibacterial Susceptibility Testing: IC90 Determination
MIC assays were performed by the broth microdilution method in a 96-well format (flat-bottom microtitre plates) with a final volume of 0.1 ml Mueller Hinton broth containing two-fold serial dilutions of compounds and inoculated with 5×10^5 CFU/ml of bacteria (standard inoculum size according to CLSI guidelines). Inhibitors are typically varied over the range of 63 to 0.49 μM. The final DMSO concentration in the assay was 1.25% (maximum tolerable DMSO concentration=6%). In the assays where the effect of human serum on the activity of the compounds against S. aureus was tested, human serum was added at a final concentration of 10%. The plates were incubated at 35° C. for 16-20 hours. At the end of incubation the bacterial growth was quantified fluorometrically. For this, resazurin was added to all wells and the plates were re-incubated. The incubation time is dependent on the type of bacteria. A change in color from blue to pink indicated the growth of bacteria. The fluorescence was read in computer-controlled fluorometer (Fluoroskan Ascent FL, Labsystems) at an excitation wavelength 540 nm and an emission wavelength of 590 nm. The % growth inhibition achieved by the compounds was calculated according to standard methods. The IC90 (expressed in μg/ml) was defined as the 90% inhibitory concentration for bacterial growth. A panel of reference compounds were simultaneously tested for QC approval.

[3] = Cytotoxicity MTT assay; assay type: cell-based; conditions: human, HelaM cells, concentration that causes 50% reduction in cell viability
Description: Cytotoxicity of the compounds was evaluated using the MTT assay. Human HelaM cells grown in 96-well plates were exposed to serial dilutions of the tested compounds (final volume of 0.2 ml) and incubated for 72 hours at 37° C. and 5% CO2 Inhibitors are typically varied over the range of 25 to 0.8 μM. The final DMSO concentration in the assay is 0.5%. MTT (3-(4,5-Dimethylthiazol-2-yl)-2,5-diphenyltetrazolium bromide, a tetrazole) was added and reduced to purple formazan only in living cells. Solubilization of the formazan crystals was achieved by adding 100 μl 2-propanol. Cell viability was determined by measuring the absorbance of the reduced formazan, giving a purple color, at 540 nm and 690 nm. The absorbance measured at 690 nm was automatically subtracted from the absorbance at 540 nm, to eliminate the effects of non-specific absorption. The percent cytotoxicity achieved by the compounds was calculated according to standard methods. Cytotoxicity is reported as CC50, the concentration that causes a 50% reduction in cell viability.

Row | MIC90 [1] [µg/mL] | melting point [°C] | IC90 [2] [µg/mL] | SMILES | CC50 at 72 h [3] [µg/mL]
1 | 0.25 (≈ 0.565 µM) | 75 to 80 |  | CC(C)(C)C(=O)N1CCC(c2nc(-c3ccc(F)cc3)ncc2-c2cccc(C#N)c2)CC1 [Compound 77] | 
2 | 0.25 (≈ 0.506 µM) |  |  | COc1cccc(-c2cnc(-c3ccc(Br)cc3)nc2C2CCN(CC(C)(C)C)CC2)c1 [Compound 90] | 
3 | 0.125 (≈ 0.284 µM) | 157 to 158 |  | N#Cc1cccc(-c2cnc(-c3ccc(F)cc3)nc2C2CCN(CC(F)(F)F)CC2)c1 [Compound 76] | 
4 | 0.125 (≈ 0.273 µM) |  |  | COc1cccc(-c2cnc(-c3ccc(OC)nc3)nc2C2CCN(CC(F)(F)F)CC2)c1 [Compound 79] | 
5 | 1 (≈ 2.36 µM) | 182 |  | CC(C)(C#N)CN1CCC(c2nc(-c3cncnc3)ncc2-c2cccc(C#N)c2)CC1 [Compound 82] | 
6 | 0.125 (≈ 0.277 µM) |  |  | C#Cc1ccc(-c2ncc(-c3cccc(OC)c3)c(C3CCN(CC(C)(C)C#N)CC3)n2)cc1 [Compound 92] | 
7 | 0.125 (≈ 0.284 µM) | 171 |  | CC(C)(C#N)CN1CCC(c2nc(-c3ccc(F)cc3)ncc2-c2cccc(C#N)c2)CC1 [Compound 80] | 
8 | 0.125 (≈ 0.277 µM) | 207 |  | COc1cccc(-c2cnc(-c3ccc(C#N)cc3)nc2C2CCN(CC(C)(C)C#N)CC2)c1 [Compound 86] | 
9 | 0.125 (≈ 0.261 µM) |  |  | CC(C)(C)S(=O)(=O)N1CCC(c2nc(-c3ccc(F)cc3)ncc2-c2cccc(C#N)c2)CC1 [Compound 89] | 
10 | > 64 |  |  | CC(C)(C)CNCCNc1nc(-c2ccncc2)ncc1-c1cccc(C#N)c1 [Compound 73] | 
11 | 0.125 (≈ 0.273 µM) |  |  | COc1cccc(-c2cnc(-c3ccc(OC)nc3)nc2C2CCN(CC(C)(C)C#N)CC2)c1 [Compound 81] | 
12 | 0.5 (≈ 1.14 µM) |  |  | C#Cc1ccc(-c2ncc(-c3cccc(OC)c3)c(C3CCN(CC(C)(C)C)CC3)n2)cc1 [Compound 91] | 
13 | 0.125 (≈ 0.279 µM) | 249 to 251 |  | N#Cc1ccc(-c2ncc(-c3cccc(C#N)c3)c(C3CCN(CC(F)(F)F)CC3)n2)cc1 [Compound 84] | 
14 | 0.5 (≈ 1.18 µM) | 79 to 87 |  | CC(C)(C#N)CN1CCC(c2nc(-c3ccncc3)ncc2-c2cccc(C#N)c2)CC1 [Compound 75] | 
15 | 0.125 (≈ 0.247 µM) |  |  | COc1cccc(-c2cnc(-c3ccc(Br)cc3)nc2C2CCN(CC(C)(C)C#N)CC2)c1 [Compound 88] | 
16 | 0.125 (≈ 0.281 µM) | 119 |  | COc1cccc(-c2cnc(-c3ccc(F)cc3)nc2C2CCN(CC(C)(C)C#N)CC2)c1 [Compound 78] | 
17 |  | 57 to 113 | > 25.9 | CC(C)(C)CN1CCCC(c2nc(-c3cccnc3)ncc2-c2cccc(C#N)c2)C1 (stereo not shown) [Compound 62] | > 10.3
18 |  | 154 to 158 | < 0.21 | CC(C)(C)CN1CCC(c2nc(-c3ccc(F)cc3)ncc2-c2cccc(C#N)c2)CC1 [Compound 66] | 8.8 (≈ 20.5 µM)
19 |  | 130 | 13.4 (≈ 30.2 µM) | COc1cccc(-c2cnc(-c3ccncc3)nc2C2CCN(CC3CCCCC3)CC2)c1 [Compound 17] | > 11.1
20 |  | 153 to 156 | 5.78 (≈ 15 µM) | COc1cccc(-c2cnc(-c3ccncc3)nc2C2CCN(C3CC3)CC2)c1 [Compound 12] | > 9.7
21 |  | 119 to 121 | 0.76 (≈ 1.81 µM) | CC(C)(C)CN1CCC(c2nc(-c3ccncc3)ncc2-c2cccc(Cl)c2)CC1 [Compound 39] | 7.3 (≈ 17.3 µM)
22 |  | 140 | 7.32 (≈ 15.9 µM) | COc1cccc(-c2cnc(-c3ccncc3)nc2C2CCN(Cc3cccc(C#N)c3)CC2)c1 [Compound 31] | 4.2 (≈ 9.1 µM)

Row | MIC90 [1] [µg/mL] | melting point [°C] | IC90 [2] [µg/mL] | SMILES | CC50 at 72 h [3] [µg/mL]
23 |  | 160 | 12.2 (≈ 31.6 µM) | C#CCN1CCC(c2nc(-c3ccncc3)ncc2-c2cccc(OC)c2)CC1 [Compound 49] | > 9.7
24 |  | 112 to 114 | 0.52 (≈ 1.14 µM) | CC(C)(C)CN1CCC(c2nc(-c3ccncc3)ncc2-c2cccc(C(F)(F)F)c2)CC1 [Compound 40] | 7 (≈ 15.4 µM)
25 |  | 158 | 2.24 (≈ 4.74 µM) | COc1cccc(-c2cnc(-c3ccncc3)nc2C2CCN(Cc3ccc(F)c(F)c3)CC2)c1 [Compound 43] | 6.2 (≈ 13.1 µM)
26 |  | 152 | 3.45 (≈ 7.59 µM) | COc1cccc(-c2cnc(-c3ccncc3)nc2C2CCN(Cc3ccc(F)cc3)CC2)c1 [Compound 29] | 8.5 (≈ 18.7 µM)
27 | 0.125 (≈ 0.277 µM) |  |  | C#Cc1ccc(-c2ncc(-c3cccc(OC)c3)c(C3CCN(CC(F)(F)F)CC3)n2)cc1 [Compound 93] | 
28 |  | 141 | 13.3 (≈ 29.5 µM) | COc1cccc(-c2cnc(-c3ccncc3)nc2C2CCN(Cc3ccc(C)cc3)CC2)c1 [Compound 35] | 7.7 (≈ 17.1 µM)
29 |  | 137 to 138 | 5.19 (≈ 12 µM) | COc1cccc(-c2cnc(-c3ccncc3)nc2NC2CCN(CC(C)(C)C)CC2)c1 [Compound 30] | 8.8 (≈ 20.4 µM)
30 |  | 114 to 116 | 1.46 (≈ 3.63 µM) | CC(C)(C)CN1CCC(c2nc(C(F)(F)F)ncc2-c2cccc(C#N)c2)CC1 [Compound 64] | > 10.1
31 |  | 120 | 13 (≈ 30.5 µM) | COc1cccc(-c2cnc(-c3ccncc3)nc2C2CCN(Cc3ccco3)CC2)c1 [Compound 18] | > 10.7
32 |  | 168 to 172 | 0.69 (≈ 1.63 µM) | N#Cc1cccc(-c2cnc(-c3ccncc3)nc2C2CCN(CC(F)(F)F)CC2)c1 [Compound 58] | > 10.6
33 |  | 184 | 1.74 (≈ 3.68 µM) | COc1cccc(-c2cnc(-c3ccncc3)nc2C2CCN(Cc3c(F)cccc3F)CC2)c1 [Compound 47] | 2.1 (≈ 4.44 µM)
34 |  | 106 to 108 | 5.16 (≈ 10.1 µM) | COc1cccc(-c2cnc(-c3ccncc3)nc2N2CCC(NC(=O)C(C)Oc3ccccc3)CC2)c1 (stereo not shown) [Compound 22] | 8.5 (≈ 16.7 µM)
35 |  | 165 to 166 | 7.37 (≈ 15.1 µM) | COc1cccc(-c2cnc(-c3ccccn3)nc2C2CCN(Cc3cc(Cl)ccc3O)CC2)c1 [Compound 23] | 4.4 (≈ 9.03 µM)
36 |  | 139 | 8.66 (≈ 19.1 µM) | COc1cccc(-c2cnc(-c3ccncc3)nc2C2CCN(Cc3ccccc3F)CC2)c1 [Compound 41] | 7.7 (≈ 16.9 µM)
37 |  | 142 to 146 | 1.68 (≈ 3.71 µM) | COc1cccc(-c2cnc(-c3ccncc3)nc2C2CCN(Cc3ccccc3O)CC2)c1 [Compound 10] | 9.9 (≈ 21.9 µM)
38 |  | 163 to 170 | 6.1 (≈ 14.8 µM) | CC(C)(C)CN1CCC(c2nc(-c3cncnc3)ncc2-c2cccc(C#N)c2)CC1 [Compound 68] | > 10.4
39 |  | 111 to 114 | 5.59 (≈ 12.3 µM) | COc1cccc(-c2cnc(-c3ccncc3)nc2C2CCN(Cc3cccc(F)c3)CC2)c1 [Compound 3] | > 4.5
40 |  | 123 to 127 | 1.49 (≈ 3.72 µM) | Cc1cccc(-c2cnc(-c3ccncc3)nc2C2CCN(CC(C)(C)C)CC2)c1 [Compound 15] | > 10.1
41 |  | 117 | 0.39 (≈ 0.912 µM) | COc1cccc(-c2cnc(-c3ccncc3)nc2C2CCN(CC(C)(C)C#N)CC2)c1 [Compound 57] | 7.3 (≈ 17.1 µM)
42 |  | 168 | 6.99 (≈ 15.1 µM) | COc1cccc(-c2cnc(-c3ccncc3)nc2C2CCN(Cc3ccc(C#N)cc3)CC2)c1 [Compound 34] | 8.7 (≈ 18.8 µM)
43 |  | 52 to 92 | > 26.7 | N#Cc1cccc(-c2cnc(-c3cccnc3)nc2C2CCCN(CC(F)(F)F)C2)c1 (stereo not shown) [Compound 60] | > 10.6
44 |  | 158 | 6.75 (≈ 14.6 µM) | COc1cccc(-c2cnc(-c3ccncc3)nc2C2CCN(Cc3ccccc3C#N)CC2)c1 [Compound 42] | 5.1 (≈ 11 µM)

From patent US9725432B2, “Pyrimidine derivatives for the treatment of bacterial diseases” (JANSSEN R&D IRELAND, priority 2012, dated 2017)
